{"source": "patent US20130158112A1", "about": "“COMPOSITIONS AND METHODS FOR INHIBITING BETA AMYLOID SECRETION” (priority 2011, published 2013)", "key": {"Aβ secretion [1]": {"system": "Aβ secretion", "assay": "Secreted total Aβ ELISA in conditioned media of H4βAPP695 wt cells", "type": "cell-based, human", "details": "H4βAPP695 wt cells", "summary_of_the_method": "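H4 […] cells stably expressing wild-type βAPP695 (CMV promoter), serum-starved 24 h, then exposed to drug in DMSO or vehicle for 24 h before Aβ in conditioned media was measured. Primary cortical neurons came from E18 APPswe/PSEN1dE9 mice on C57BL/6 background.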"}, "Aβ secretion [2]": {"system": "Aβ secretion", "assay": "Secreted Aβ in cultured primary neurons from APP/PS1 transgenic mice", "type": "cell-based, mouse", "details": "24 h incubation", "procedure": "H4βAPP695 wt cells, a human […] cell line stably transfected with a wtβAPP695 expression vector construct under the control of a CMV promoter (kindly provided by Dr. Chris Eckman from Mayo Clinic, Florida) were cultured as previously described. Twenty-four hours before drug treatment, the media was replaced with serum-free media. Cells were then incubated with drugs (dissolved in DMSO) or vehicle for 24 h for collection of conditioned media and cell lysates. For the PKC inhibitors experiment, three inhibitors were treated 30 min prior to drug challenge. Primary cortical neurons were prepared from embryonic day 18 APP and presenilin 1 (APPswe, PSEN1dE9) transgenic mice on the C57BL/6 genetic background (Jackson Laboratories, strain no. 5864) as previously described. THLE-3 human hepatoma cells (from ATCC) were plated in 24-well plates that were precoated with 10 μg/mL bovine serum albumin, 10 μg/mL fibronectin, and 30 μg/mL bovine type I collagen. […] Transepithelial resistance was measured in each well and found to be >160 Ω/cm^2. […] Four hours later, the basal chamber media was harvested and used to measure lucifer yellow fluorescence to confirm monolayer integrity as well as for treatment of H4βAPP695 wt cells for 24 h prior to analysis of secreted Aβ, which was compared to the effect of direct addition of 10 μM of the corresponding drug."}, "α-secretase [3]": {"system": "α-secretase", "assay": "α-Secretase activity assay in lysates of treated H4βAPP695 wt cells", "type": "cell-based, human", "procedure": "(§1) H4βAPP695 wt were treated with vehicle or 1 for 24 h, washed with ice cold PBS, and lysed in extraction buffer provided with the α-secretase assay kit (R&D Systems) for 10 min on ice and centrifuged at 10000 g for 1 min to remove nuclei. Protein content of the supernatant was determined by the BCA assay, and 50 μg of lysate protein were added to wells of a 96-well assay plate and the volume was adjusted to 100 μL using the lysis buffer. 100 μL of reaction buffer and 10 μL of the fluorogenic substrate were added, and the plates were incubated at 37° C. in the dark with gentle agitation for 2 h. Activity was detected in a fluorescence plate reader using an excitation of 355 nm and an emission of 510 nm after subtraction of fluorescence in the absence of cell lysate.\n(§2) We measured the activity of α-secretase using a fluorogenic peptide substrate in lysates of H4βAPP695 wt cells. […] However, addition of compound 1 directly to the cell lysates, rather than to the live cells, had no effect on α-secretase activity (data not shown), implying an indirect cellular activation of this pathway rather than direct activation of the α-secretase protease by compound 1."}, "α-secretase [4]": {"system": "α-secretase", "assay": "α-Secretase activity, compound added directly to cell lysates", "type": "biochemical, human", "details": "added to lysates rather than live cells", "procedure": "as §1, §2"}, "ADAM9": {"system": "ADAM9", "assay": "Western blot of pro and active ADAM9 in H4βAPP695 wt cells", "type": "cell-based, human", "details": "24 h", "procedure": "(§3) Several members of the ADAM (a disintegrin and metalloproteinase) family, ADAM9, ADAM10, and ADAM17, have been reported to have α-secretase activity. […] Using antibodies specific for these three ADAM proteases, we assessed the levels of the pro and active forms in cells cultured with increasing concentrations of compound 1. […] At the 10 μM dose of compound 1, we observed a 31% increase in the ratio of active/pro ADAM9 (p<0.05), N=3 each control and compound 1) and a 42% increase in the ratio active/pro ADAM10 (p<0.05). Although the direct target for compound 1 has not been identified, it seems likely that its mechanism is via the increased ADAM 9 and ADAM10 processing into active α-secretase, which cleaves APP in a manner that precludes Aβ production."}, "ADAM10": {"system": "ADAM10", "assay": "Western blot of pro and active ADAM10 in H4βAPP695 wt cells", "type": "cell-based, human", "details": "24 h", "procedure": "as §3"}, "ADAM17": {"system": "ADAM17", "assay": "Western blot of pro and active ADAM17 in H4βAPP695 wt cells", "type": "cell-based, human", "details": "increasing concentrations, 24 h", "procedure": "as §3"}, "Aβ secretion [5]": {"system": "Aβ secretion", "assay": "PKC inhibitors experiment on Aβ secretion", "type": "cell-based, human", "procedure": "(§4) H4βAPP695 wt cells, a human […] cell line stably transfected with a wtβAPP695 expression vector construct under the control of a CMV promoter (kindly provided by Dr. Chris Eckman from Mayo Clinic, Florida) were cultured as previously described. Twenty-four hours before drug treatment, the media was replaced with serum-free media. Cells were then incubated with drugs (dissolved in DMSO) or vehicle for 24 h for collection of conditioned media and cell lysates. For the PKC inhibitors experiment, three inhibitors were treated 30 min prior to drug challenge. Primary cortical neurons were prepared from embryonic day 18 APP and presenilin 1 (APPswe, PSEN1dE9) transgenic mice on the C57BL/6 genetic background (Jackson Laboratories, strain no. 5864) as previously described. THLE-3 human hepatoma cells (from ATCC) were plated in 24-well plates that were precoated with 10 μg/mL bovine serum albumin, 10 μg/mL fibronectin, and 30 μg/mL bovine type I collagen. The cells were grown in BEGM media (Clonetics) until confluent and treated with drugs at 20 μM for 24 h. This conditioned media was harvested, diluted 1:1 in serum-free medium, and incubated with H4βAPP695 wt cells for 24 h prior to analysis of secreted Aβ, which was compared to the effect of 10 μM drug treatments without prior incubation with the THLE-3 cells. Caco-2 cells (ATCC) were plated in 12-well plates with Transwell inserts (Costar) at 70000 cells per well and grown for 21 days. The media volume of the apical and basal chambers was 0.5 and 1.5 mL, respectively. Transepithelial resistance was measured in each well and found to be >160 Ω/cm^2. Drugs at 40 μM and 20 μg/mL of lucifer yellow were added in serum-free medium to the apical chamber. Four hours later, the basal chamber media was harvested and used to measure lucifer yellow fluorescence to confirm monolayer integrity as well as for treatment of H4βAPP695 wt cells for 24 h prior to analysis of secreted Aβ, which was compared to the effect of direct addition of 10 μM of the corresponding drug.\nThe tumor promoter phorbal myristate acetate is an activator of protein kinase C (PKC) that has been reported to activate α-secretase activity. Thus, we wanted to determine if protein kinase C inhibitors could block the effect of compound 1 on Aβ secretion."}, "[6]": {"system": "THLE-3 human hepatoma cells", "assay": "Drug activity persistence after incubation with THLE-3 hepatoma cells", "type": "in vitro ADME", "details": "Homo sapiens, THLE3, 24 h", "procedure": "as §4\nTo screen for resistance to metabolism, 1 and eight noncytotoxic analogues with >50% Aβ reducing activity (compounds 27, 29, 48, 52, 53, 65, 73, and 76) were incubated at 20 μM for 24 h with or without THLE-3 human hepatoma cells."}, "APP": {"system": "APP", "assay": "Western blot of APP processing products (sAPPα, sAPPβ, holoAPP, αCTF) in H4βAPP695 wt cells", "type": "cell-based, human"}, "H4βAPP695 wt cells": {"system": "H4βAPP695 wt cells", "assay": "Cytotoxicity by total cell protein content (BCA) of H4βAPP695 wt cells", "details": "10 μM"}}, "note": "“Also recorded” adds a separate entry of the source. Read-outs that look alike come from different tables or passages of the source."}
{"molecule": "O=C(NCCSCc1cccc(Cl)c1)c1c(Cl)cccc1Cl", "note": "[Compound 1]", "values": [{"measurement": "Aβ lowering activity", "setting": "Aβ secretion [1]; 1 μM", "value": "displayed Aβ lowering activity at 1 μM"}, {"measurement": "% β Decrease", "setting": "Aβ secretion [1]; 10 μM, relative to vehicle treated control cells", "value": 75.3, "unit": "%"}, {"measurement": "inhibition at 10 µM", "setting": "Aβ secretion [1]; Homo sapiens, 24 h, 10 μM, relative to vehicle treated control cells, read-out: % β Decrease", "value": "75.3 ± 11.6", "unit": "%"}, {"measurement": "secreted Aβ levels in primary neurons", "setting": "Aβ secretion [2]", "value": "effective in reducing secreted Aβ levels"}, {"measurement": "α-secretase activity after treatment of cells", "setting": "α-secretase [3]", "value": "induced"}, {"measurement": "increase in α-secretase activity", "setting": "α-secretase [3]; cells pretreated with 10 μM for 24 h", "value": 20, "unit": "%"}, {"measurement": "α-secretase activity on direct addition to cell lysates", "setting": "α-secretase [4]", "value": "no effect"}, {"measurement": "increase in the ratio of active/pro ADAM9", "setting": "ADAM9; 10 μM", "value": 31, "unit": "%"}, {"measurement": "active ADAM9 / processing of ADAM9", "setting": "ADAM9; increasing doses", "value": "dose dependent increase; also recorded: promotes cellular processing"}, {"measurement": "increase in the ratio active/pro ADAM10", "setting": "ADAM10; 10 μM", "value": 42, "unit": "%"}, {"measurement": "active ADAM10 / processing of ADAM10", "setting": "ADAM10; increasing doses", "value": "dose dependent increase; also recorded: promotes cellular processing"}, {"measurement": "active form of ADAM17", "setting": "ADAM17", "value": "did not observe much effect"}, {"measurement": "effect on Aβ secretion in presence of PKC inhibitors", "setting": "Aβ secretion [5]", "value": "not blocked by PKC inhibitors"}, {"measurement": "inhibition at 10 µM", "setting": "[6]; 10 μM on H4 cells, without preincubation with hepatoma cells, read-out: hepatoma incubation No total Aβ (% decrease)", "value": 69.4, "unit": "%"}, {"measurement": "inhibition at 10 µM", "setting": "[6]; 20 μM preincubated 24 h with THLE-3 hepatoma cells, diluted to 10 μM on H4 cells, read-out: hepatoma incubation Yes total Aβ (% decrease)", "value": 34.6, "unit": "%"}, {"measurement": "time at which α-CTF increase is first observed", "setting": "APP; 10 μM", "value": 2, "unit": "h"}, {"measurement": "time to maximal α-CTF levels", "setting": "APP; 10 μM", "value": "≤ 8", "unit": "h"}, {"measurement": "increase in cellular α-CTF in presence of cyclohexamide", "setting": "APP; 4 h treatment", "value": "not blocked"}, {"measurement": "cytotoxicity, measured by total cell protein content", "setting": "H4βAPP695 wt cells", "value": "did not have significant cytotoxicity"}]}
